The test system of data set [1] is ASD behaviors. The settings on record: 12 week, mean dose 5 mg/day; cited from earlier work.
Data set [2] has as its system youth with ASD. Briefly: 12-week RCT: associated psychopathology and global functioning (ADHD-RS, CASI-ANX, CDRS-R, GAF). The format is in vivo, human. The note with it: MEM [N = 16]. As for the experimental part:
(§1) This study was a 12-week, randomized, double-blind, placebo-controlled, parallel group clinical trial of memantine in youth with ASD. Youth with ASD who met the eligibility criteria were randomized to receive either memantine or placebo during the course of the 12-week trial. Participants underwent multimodal MRI scans prior to and upon completion of the 12-week trial. Participants were assessed weekly during the titration phase (baseline to Week 4) and at midpoint (Week 6), Week 9, and completion (Week 12) during the maintenance phase. At each study visit, safety and efficacy were assessed by administering measures of efficacy (CGI, GAF), tolerability (assessing treatment-emergent AEs), and safety (vital signs, including weight). At baseline, midpoint, and endpoint (completion/early termination) severity of autism was assessed by administering measures of autism severity (SRS-2, ABC-SW, CY-BOCS-PDD) and associated psychopathology (ADHD-RS, CDRS-R, CASI-ANX).
Additional treatment response of autism impairment was examined for the ASD subdomains by assessing change with treatment in the severity of the SRS-2 subscales and the Children's Yale Brown Obsessive Compulsive Scale modified for PDD (CY-BOCS-PDD) (Goodman et al., 1986 (Rev 89); Scahill et al., 2006) to assess change with treatment in the ritualistic behaviors associated with ASD. Treatment response of frequently associated psychopathologies with ASD was assessed by administering the clinician-rated Attention Deficit Hyperactivity Disorder Rating Scale (ADHD-RS) (DuPaul, Power, Anastopoulos, & Reed, 1998), Children's Depression Rating Scale-Revised (CDRS-R)(Poznanski et al., 1985), and CASI-4 ASD Anxiety Scale (CASI-4 ASD Anxiety Scale (CASI-Anx)(Gadow et al., 2002). Change with treatment in the level of global functioning was assessed by the clinician-rated GAF.
The mixed-effects regression models used to analyze the secondary measures of efficacy predicted the outcome measure from treatment group (memantine versus placebo), study visit (continuous), and the treatment group-by-study visit interaction, which is our test of efficacy. To examine the effect of baseline PgACC glutamate activity level on the response to treatment, we predicted outcomes measures from treatment group, study visit (continuous), PgACC glutamate activity level (continuous), treatment group-by-study visit interaction, glutamate activity level-by-study visit interaction, treatment group-by-glutamate activity level interaction, and treatment group-by-glutamate activity level-by-study visit interaction. All mixed-effects regression models had random intercepts by subject ID, used robust standard errors to account for the repeated measures on each subject, and used an independent covariance structure for the random effects. […] All missing data were assumed to be missing at random.
Effect sizes are presented as standardized mean differences (SMD) for continuous outcomes and odds ratios (OR) for dichotomous outcomes. The SMDs for the difference of the changes in scores over time between memantine and placebo and between high glutamate and normal glutamate were calculated as Cohen's d using the following calculations: the difference in the change scores between the two groups divided by the pooled standard deviation. The SMDs for changes in scores within groups were calculated as Cohen's d using the following calculation: difference in score from baseline to endpoint divided by the pooled standard deviation. For comparisons of memantine versus placebo and high glutamate versus normal glutamate, positive SMDs and ORs>1 indicate better improvement in the memantine group and high glutamate group, respectively. For comparisons of ASD versus healthy controls, positive SMDs indicate lower glutamate activity levels in the ASD group. […]

Data set [3] relates to youth with ASD. Briefly: 12-week RCT: safety and tolerability (treatment-emergent AEs, vital signs, early terminations, rescue medication). The format is in vivo, human. As to the method:
as §1
Safety and tolerability of memantine was monitored by administering a complete physical examination, battery of blood tests (complete blood count, electrolytes, liver function test, thyroid function test, and random glucose levels), Urine tests (drug screen and pregnancy screen [women of child-bearing potential only]), and EKG at baseline and endpoint of the trial, and by recording treatment-emergent AEs and obtaining vital signs (pulse, blood pressure, weight) at each study visit.
Safety results were summarized descriptively by treatment group and baseline glutamate activity level (high versus normal) and compared at the end of the study using Fisher's exact or Pearson's chi-square tests. All analyses were performed using Stata (Version 16) (StataCorp, Stata Statistical Software: Release 16. College Station, TX: StataCorp LLC. 2019).

Consider `CC12CC3CC(C)(C1)CC(N)(C3)C2` [MEM, memantine], for which, in data set [1], the “ASD behaviors relative to placebo response” value is reported as “no improvement in ASD behaviors”. In data set [2] (BL (baseline)), the ADHD-RS is given as 29.1 ± 13.6, the CASI-ANX worked out at 14.7 ± 8.6, the CDRS-R was found to be 31.4 ± 17.1 and the GAF was found to be 53.6 ± 2.7. In data set [2] (EP (endpoint)), this molecule had an ADHD-RS of 18.8 ± 10.9, a CASI-ANX of 7.4 ± 5.6, a CDRS-R of 22.8 ± 7.5 and a GAF of 61.8 ± 4.4. Also, in data set [2] (MD (mean difference)), the ADHD-RS is listed as −10.3 ± 10.6, the CASI-ANX is listed as −7.3 ± 6.2, the CDRS-R is recorded as −8.7 ± 10.8 and the GAF stood at 8.2 ± 5.9. Further, the “Mean # of AEs” value in data set [3] (Glu Based Sample [MEM] High [N = 10]) came out at 2.4 ± 1.3. Further, the “Mean # of AEs” value in data set [3] (Glu Based Sample [MEM] Normal [N = 8]) was found to be 2.8 ± 1.0. For the same molecule, in data set [3] (Unselected Sample MEM [N = 21]), the “Early Terminations: Treatment Limiting AEs” value is “Four”, the “Mean # of AEs” value is reported as 2.2 ± 1.2, the “Participants completed trial (12 weeks)” value is 16 N and the “Severe AEs” value is “Two”. For the same molecule, in data set [3] (Unselected Sample MEM [N = 21]), the “Severe AEs: Headache” value is given as 5% and the “Severe AEs: Irritability + Agitation (Worsening)” value is listed as 5%.

These data come from patent US20240130675A1, “Methods for Treating Autism Spectrum Disorder” (The General Hospital Corporation, priority 2021, published 2024).
